According to ChEMBL document CHEMBL4507269, “Data for DCP probe BAY-386” (2021):

Assays:
[1] = target: T1, Adenosine receptor A3 (Homo sapiens) (UniProt P0DMS8); assay: A3 (h) Eurofins-Cerep Cellular and Nuclear Receptor Functional Assays; details: Compound concentration 10.0 uM
T1 sequence (whole entry): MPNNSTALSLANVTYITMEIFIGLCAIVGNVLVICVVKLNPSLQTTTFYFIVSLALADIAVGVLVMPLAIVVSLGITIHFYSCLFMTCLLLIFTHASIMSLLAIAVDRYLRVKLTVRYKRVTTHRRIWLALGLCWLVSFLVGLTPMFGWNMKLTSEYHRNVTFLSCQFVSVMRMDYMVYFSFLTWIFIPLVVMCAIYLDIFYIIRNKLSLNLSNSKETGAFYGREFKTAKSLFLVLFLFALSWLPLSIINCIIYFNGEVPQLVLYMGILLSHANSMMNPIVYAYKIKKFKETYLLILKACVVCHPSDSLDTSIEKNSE

[2] = tested on: Tyrosine-protein kinase ABL1 (Homo sapiens), P00519 [T315I]; details: Compound concentration 1000.0 nM
[3] = target: Tyrosine-protein kinase receptor UFO (Homo sapiens) (UniProt P30530); details: Compound concentration 1000.0 nM
Sequence of Tyrosine-protein kinase receptor UFO (Homo sapiens) (P30530 whole entry): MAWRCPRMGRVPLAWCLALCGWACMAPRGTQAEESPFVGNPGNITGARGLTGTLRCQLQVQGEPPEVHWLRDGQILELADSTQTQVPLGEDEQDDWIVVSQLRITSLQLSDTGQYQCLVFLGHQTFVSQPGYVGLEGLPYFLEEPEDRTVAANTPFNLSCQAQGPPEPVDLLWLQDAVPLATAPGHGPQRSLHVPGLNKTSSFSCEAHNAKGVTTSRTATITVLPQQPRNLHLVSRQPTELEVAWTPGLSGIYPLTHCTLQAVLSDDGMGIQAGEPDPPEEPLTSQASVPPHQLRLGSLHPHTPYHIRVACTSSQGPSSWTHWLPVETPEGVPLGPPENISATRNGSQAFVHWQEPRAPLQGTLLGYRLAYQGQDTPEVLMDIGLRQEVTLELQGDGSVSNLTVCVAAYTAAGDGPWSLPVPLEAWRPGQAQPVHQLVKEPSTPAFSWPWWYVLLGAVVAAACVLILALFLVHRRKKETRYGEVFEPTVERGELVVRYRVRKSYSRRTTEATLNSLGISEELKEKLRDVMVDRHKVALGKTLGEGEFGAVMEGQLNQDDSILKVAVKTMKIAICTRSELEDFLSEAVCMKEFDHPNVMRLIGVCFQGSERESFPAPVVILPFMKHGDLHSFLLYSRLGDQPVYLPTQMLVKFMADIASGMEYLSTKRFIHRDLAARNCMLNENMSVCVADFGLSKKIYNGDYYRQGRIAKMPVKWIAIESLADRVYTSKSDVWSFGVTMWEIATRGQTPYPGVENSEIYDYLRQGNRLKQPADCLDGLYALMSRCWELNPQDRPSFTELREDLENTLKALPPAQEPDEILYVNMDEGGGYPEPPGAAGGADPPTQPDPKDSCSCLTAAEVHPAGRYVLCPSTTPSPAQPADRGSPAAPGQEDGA

[4] = target: Cyclin-dependent kinase 5 (Homo sapiens) (UniProt Q00535); details: Compound concentration 1000.0 nM
Sequence of Cyclin-dependent kinase 5 (Homo sapiens) (Q00535 whole entry, looked up): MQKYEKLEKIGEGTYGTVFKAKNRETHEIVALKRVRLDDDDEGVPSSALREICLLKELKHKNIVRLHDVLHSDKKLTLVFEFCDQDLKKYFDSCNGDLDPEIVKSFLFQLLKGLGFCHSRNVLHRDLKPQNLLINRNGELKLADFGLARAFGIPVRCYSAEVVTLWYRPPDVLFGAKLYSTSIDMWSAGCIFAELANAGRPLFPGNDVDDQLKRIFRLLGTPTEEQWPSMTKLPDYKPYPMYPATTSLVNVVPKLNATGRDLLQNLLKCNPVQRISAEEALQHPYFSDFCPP

[5] = target: Cyclin-dependent kinase-like 5 (Homo sapiens) (UniProt O76039); details: Compound concentration 1000.0 nM
Sequence of Cyclin-dependent kinase-like 5 (Homo sapiens) (O76039 whole entry, canonical isoform): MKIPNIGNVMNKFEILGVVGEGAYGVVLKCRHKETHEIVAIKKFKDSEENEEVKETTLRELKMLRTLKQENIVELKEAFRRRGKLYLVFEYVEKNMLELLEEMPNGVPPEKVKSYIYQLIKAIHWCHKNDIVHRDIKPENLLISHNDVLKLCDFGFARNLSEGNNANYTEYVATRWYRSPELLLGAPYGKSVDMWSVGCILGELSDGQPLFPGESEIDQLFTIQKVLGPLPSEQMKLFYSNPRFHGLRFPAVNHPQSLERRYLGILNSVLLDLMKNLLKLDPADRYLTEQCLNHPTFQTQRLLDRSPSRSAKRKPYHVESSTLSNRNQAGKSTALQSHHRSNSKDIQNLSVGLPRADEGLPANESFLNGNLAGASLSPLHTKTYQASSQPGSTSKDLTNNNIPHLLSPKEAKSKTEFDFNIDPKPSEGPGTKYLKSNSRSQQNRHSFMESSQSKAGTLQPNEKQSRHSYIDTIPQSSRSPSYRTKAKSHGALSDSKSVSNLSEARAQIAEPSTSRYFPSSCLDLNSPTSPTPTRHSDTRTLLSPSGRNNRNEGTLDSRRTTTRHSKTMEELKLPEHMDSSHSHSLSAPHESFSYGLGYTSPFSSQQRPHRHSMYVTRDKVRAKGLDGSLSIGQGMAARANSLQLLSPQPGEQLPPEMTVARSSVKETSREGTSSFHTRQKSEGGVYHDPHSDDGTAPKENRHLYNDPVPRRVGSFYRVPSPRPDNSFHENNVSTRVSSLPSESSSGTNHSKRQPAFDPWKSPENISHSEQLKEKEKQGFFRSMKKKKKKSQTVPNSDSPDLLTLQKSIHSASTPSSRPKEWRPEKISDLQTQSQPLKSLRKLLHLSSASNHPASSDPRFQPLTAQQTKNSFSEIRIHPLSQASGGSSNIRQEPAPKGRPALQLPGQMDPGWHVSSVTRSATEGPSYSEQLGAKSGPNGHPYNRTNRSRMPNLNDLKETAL

[6] = target: Casein kinase I isoform alpha-like (Homo sapiens) (UniProt Q8N752); details: Compound concentration 1000.0 nM
[7] = target: Casein kinase II subunit alpha' (Homo sapiens) (UniProt P19784); details: Compound concentration 1000.0 nM
[8] = target: Serine/threonine-protein kinase DCLK3 (Homo sapiens) (UniProt Q9C098); details: Compound concentration 1000.0 nM
[9] = tested on: Epidermal growth factor receptor (Homo sapiens), P00533 [L858R]; details: Compound concentration 1000.0 nM
[10] = target: Mitogen-activated protein kinase 7 (Homo sapiens) (UniProt Q13164); details: Compound concentration 1000.0 nM
[11] = target: Inhibitor of nuclear factor kappa-B kinase subunit beta (Homo sapiens) (UniProt O14920); details: Compound concentration 1000.0 nM
[12] = target: Interleukin-1 receptor-associated kinase 1 (Homo sapiens) (UniProt P51617); details: Compound concentration 1000.0 nM
[13] = target: Leukocyte tyrosine kinase receptor (Homo sapiens) (UniProt P29376); details: Compound concentration 1000.0 nM
[14] = target: Dual specificity mitogen-activated protein kinase kinase 1 (Homo sapiens) (UniProt Q02750); details: Compound concentration 1000.0 nM
[15] = target: Mitogen-activated protein kinase kinase kinase 10 (Homo sapiens) (UniProt Q02779); details: Compound concentration 1000.0 nM
[16] = target: Serine/threonine-protein kinase MRCK beta (Homo sapiens) (UniProt Q9Y5S2); details: Compound concentration 1000.0 nM
[17] = target: Serine/threonine-protein kinase 3 (Homo sapiens) (UniProt Q13188); details: Compound concentration 1000.0 nM
[18] = target: Serine/threonine-protein kinase PAK 2 (Homo sapiens) (UniProt Q13177); details: Compound concentration 1000.0 nM
Sequence of Serine/threonine-protein kinase PAK 2 (Homo sapiens) (Q13177 whole entry): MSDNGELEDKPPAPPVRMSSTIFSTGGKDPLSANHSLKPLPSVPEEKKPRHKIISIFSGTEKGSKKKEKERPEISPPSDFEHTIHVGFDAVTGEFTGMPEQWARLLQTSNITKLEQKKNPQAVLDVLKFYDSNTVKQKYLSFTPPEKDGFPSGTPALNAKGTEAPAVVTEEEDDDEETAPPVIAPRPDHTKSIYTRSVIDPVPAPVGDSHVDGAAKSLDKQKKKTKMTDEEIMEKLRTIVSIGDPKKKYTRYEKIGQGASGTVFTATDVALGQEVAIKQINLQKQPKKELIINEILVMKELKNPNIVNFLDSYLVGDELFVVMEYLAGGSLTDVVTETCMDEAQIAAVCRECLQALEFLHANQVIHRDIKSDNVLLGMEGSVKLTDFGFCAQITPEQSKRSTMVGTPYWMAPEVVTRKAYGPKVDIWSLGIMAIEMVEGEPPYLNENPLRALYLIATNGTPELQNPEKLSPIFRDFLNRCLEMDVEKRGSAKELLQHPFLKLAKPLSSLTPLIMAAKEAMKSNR

[19] = target: Serine/threonine-protein kinase PAK 5 (Homo sapiens) (UniProt Q9P286); details: Compound concentration 1000.0 nM
Sequence of Serine/threonine-protein kinase PAK 5 (Homo sapiens) (Q9P286 whole entry, looked up): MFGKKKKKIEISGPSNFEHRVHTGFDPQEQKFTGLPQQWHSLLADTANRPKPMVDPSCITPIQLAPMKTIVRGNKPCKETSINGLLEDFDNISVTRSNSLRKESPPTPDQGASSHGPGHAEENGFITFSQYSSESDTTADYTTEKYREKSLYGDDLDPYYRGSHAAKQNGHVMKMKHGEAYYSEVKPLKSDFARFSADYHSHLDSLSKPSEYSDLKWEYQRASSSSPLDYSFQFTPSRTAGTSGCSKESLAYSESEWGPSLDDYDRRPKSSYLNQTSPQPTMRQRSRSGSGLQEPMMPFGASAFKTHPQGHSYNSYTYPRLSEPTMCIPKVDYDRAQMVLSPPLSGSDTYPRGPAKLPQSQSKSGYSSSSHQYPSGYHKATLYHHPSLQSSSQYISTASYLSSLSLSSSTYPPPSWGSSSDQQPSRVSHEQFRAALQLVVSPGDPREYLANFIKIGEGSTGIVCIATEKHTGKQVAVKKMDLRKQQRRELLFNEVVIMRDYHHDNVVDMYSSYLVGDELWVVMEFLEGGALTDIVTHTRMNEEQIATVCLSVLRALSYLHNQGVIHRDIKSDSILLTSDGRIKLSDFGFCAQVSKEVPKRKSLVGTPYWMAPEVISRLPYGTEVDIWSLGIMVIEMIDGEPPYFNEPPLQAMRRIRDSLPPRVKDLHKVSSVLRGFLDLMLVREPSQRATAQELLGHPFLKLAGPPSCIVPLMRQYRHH

[20] = target: Platelet-derived growth factor receptor alpha (Homo sapiens) (UniProt P16234); details: Compound concentration 1000.0 nM
[21] = target: 3-phosphoinositide-dependent protein kinase 1 (Homo sapiens) (UniProt O15530); details: Compound concentration 1000.0 nM
[22] = target: Phosphatidylinositol 4,5-bisphosphate 3-kinase catalytic subunit alpha isoform (Homo sapiens) (UniProt P42336); details: Compound concentration 1000.0 nM
[23] = target: cAMP-dependent protein kinase catalytic subunit alpha (Homo sapiens) (UniProt P17612); details: Compound concentration 1000.0 nM
[24] = target: Serine/threonine-protein kinase PknB (Mycobacterium tuberculosis) (UniProt P9WI81); details: Compound concentration 1000.0 nM
[25] = target: Ribosomal protein S6 kinase beta-1 (Homo sapiens) (UniProt P23443); details: Compound concentration 1000.0 nM
Sequence of Ribosomal protein S6 kinase beta-1 (Homo sapiens) (P23443 whole entry, looked up): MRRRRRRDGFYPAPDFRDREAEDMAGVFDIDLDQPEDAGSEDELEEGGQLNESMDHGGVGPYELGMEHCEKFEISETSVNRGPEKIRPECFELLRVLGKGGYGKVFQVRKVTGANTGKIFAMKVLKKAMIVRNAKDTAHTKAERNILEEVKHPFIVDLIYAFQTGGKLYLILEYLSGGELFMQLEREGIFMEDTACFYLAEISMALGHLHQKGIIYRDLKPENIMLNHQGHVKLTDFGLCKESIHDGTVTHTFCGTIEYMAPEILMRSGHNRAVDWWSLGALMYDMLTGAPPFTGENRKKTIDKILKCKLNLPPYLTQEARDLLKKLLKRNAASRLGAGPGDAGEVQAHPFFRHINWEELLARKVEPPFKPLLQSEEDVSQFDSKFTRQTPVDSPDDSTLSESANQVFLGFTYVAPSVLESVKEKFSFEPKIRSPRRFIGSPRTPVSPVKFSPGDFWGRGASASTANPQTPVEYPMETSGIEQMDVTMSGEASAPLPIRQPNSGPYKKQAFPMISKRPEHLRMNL

[26] = target: Serine/threonine-protein kinase SBK1 (Homo sapiens) (UniProt Q52WX2); details: Compound concentration 1000.0 nM
Sequence of Serine/threonine-protein kinase SBK1 (Homo sapiens) (Q52WX2 whole entry): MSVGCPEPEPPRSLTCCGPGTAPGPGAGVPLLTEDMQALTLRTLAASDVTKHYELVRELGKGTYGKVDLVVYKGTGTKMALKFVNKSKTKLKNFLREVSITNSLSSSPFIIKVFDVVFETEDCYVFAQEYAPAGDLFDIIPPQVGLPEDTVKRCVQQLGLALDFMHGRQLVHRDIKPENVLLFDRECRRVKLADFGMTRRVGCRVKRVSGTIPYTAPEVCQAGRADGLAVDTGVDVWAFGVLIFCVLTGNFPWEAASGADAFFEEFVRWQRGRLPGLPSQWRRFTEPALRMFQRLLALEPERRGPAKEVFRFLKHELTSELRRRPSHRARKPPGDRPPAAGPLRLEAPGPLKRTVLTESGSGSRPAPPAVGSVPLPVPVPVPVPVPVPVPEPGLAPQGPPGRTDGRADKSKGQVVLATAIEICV

[27] = target: Angiopoietin-1 receptor (Homo sapiens) (UniProt Q02763); details: Compound concentration 1000.0 nM
[28] = target: Non-receptor tyrosine-protein kinase TNK1 (Homo sapiens) (UniProt Q13470); details: Compound concentration 1000.0 nM
[29] = target: Serine/threonine-protein kinase VRK2 (Homo sapiens) (UniProt Q86Y07); details: Compound concentration 1000.0 nM
[30] = target: Serine/threonine-protein kinase 32C (Homo sapiens) (UniProt Q86UX6); details: Compound concentration 1000.0 nM
[31] = target: D(1A) dopamine receptor (Homo sapiens) (UniProt P21728); details: Compound concentration 10.0 uM
Sequence of D(1A) dopamine receptor (Homo sapiens) (P21728 whole entry): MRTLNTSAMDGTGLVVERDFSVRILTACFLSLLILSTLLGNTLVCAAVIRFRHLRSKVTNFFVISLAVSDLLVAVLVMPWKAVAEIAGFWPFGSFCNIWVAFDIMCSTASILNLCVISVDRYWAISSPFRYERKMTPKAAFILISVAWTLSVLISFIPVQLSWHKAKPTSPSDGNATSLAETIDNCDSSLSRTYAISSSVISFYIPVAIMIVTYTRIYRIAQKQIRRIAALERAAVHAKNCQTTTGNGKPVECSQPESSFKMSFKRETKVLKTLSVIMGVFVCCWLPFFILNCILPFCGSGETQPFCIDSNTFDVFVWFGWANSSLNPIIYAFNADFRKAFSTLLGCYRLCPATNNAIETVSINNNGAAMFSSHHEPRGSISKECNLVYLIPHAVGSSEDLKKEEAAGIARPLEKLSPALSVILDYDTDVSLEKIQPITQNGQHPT

[32] = target: GABA-A receptor; anion channel (Rattus norvegicus) (UniProt O09028+P15431+P18506+P18508+P19969+P20236+P23574+P23576+P28471+P28473+P30191+P62813+P63079+P63138+Q91ZM7+Q9ES14); details: Compound concentration 10.0 uM
[33] = target: T2, Alpha-2A adrenergic receptor (Homo sapiens) (UniProt P08913); details: Compound concentration 10.0 uM
T2 sequence (whole entry): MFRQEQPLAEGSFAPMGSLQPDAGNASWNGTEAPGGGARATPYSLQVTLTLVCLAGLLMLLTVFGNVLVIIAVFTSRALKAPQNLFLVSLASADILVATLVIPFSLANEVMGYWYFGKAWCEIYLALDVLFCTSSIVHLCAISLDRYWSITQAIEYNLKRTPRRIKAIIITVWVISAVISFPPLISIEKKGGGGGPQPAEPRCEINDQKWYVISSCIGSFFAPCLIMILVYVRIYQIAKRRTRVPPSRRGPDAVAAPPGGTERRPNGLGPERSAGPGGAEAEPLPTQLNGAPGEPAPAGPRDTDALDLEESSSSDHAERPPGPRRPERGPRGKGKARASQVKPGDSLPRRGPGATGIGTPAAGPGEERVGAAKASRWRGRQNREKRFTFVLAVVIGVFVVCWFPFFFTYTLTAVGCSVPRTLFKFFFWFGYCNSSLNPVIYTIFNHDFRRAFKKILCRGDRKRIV

O=C(N1CCS(=O)(=O)CC1)N1C[C@H](c2ccc(OC(F)(F)F)cc2)C[C@H](c2nc(C3CC3)no2)C1 [BAY-386]
inactive: residual activity [2] 100% | residual activity [3] 100% | residual activity [4] 83% | residual activity [5] 100% | residual activity [6] 100% | residual activity [7] 100% | residual activity [8] 100% | residual activity [9] 100% | residual activity [10] 100% | residual activity [11] 77% | residual activity [12] 92% | residual activity [13] 100% | residual activity [14] 91% | residual activity [15] 99% | residual activity [16] 100% | residual activity [17] 100% | residual activity [18] 90% | residual activity [19] 100% | residual activity [20] 100% | residual activity [21] 94% | residual activity [22] 100% | residual activity [23] 100% | residual activity [24] 100% | residual activity [25] 100% | residual activity [26] 90% | residual activity [27] 100% | residual activity [28] 100% | residual activity [29] 90% | residual activity [30] 93% | inhibition [31] 3.2% | inhibition [32] -2.64% | inhibition [33] -0.34%
-13.1%: % Inhibition of Control Agonist Response (Mean n=2) [1]
2.5%: % of Control Agonist Response (Mean n=2) [1]

Cc1noc([C@H]2C[C@@H](c3ccc(C(F)(F)F)cc3)CN(C(=O)N3CCS(=O)(=O)C3)C2)n1 [BAY-448]
12.2%: % Inhibition of Control Agonist Response (Mean n=2) [1]
inactive: residual activity [2] 69% | residual activity [3] 100% | residual activity [4] 100% | residual activity [5] 100% | residual activity [6] 100% | residual activity [7] 90% | residual activity [8] 100% | residual activity [9] 100% | residual activity [10] 87% | residual activity [11] 80% | residual activity [12] 100% | residual activity [13] 100% | residual activity [14] 100% | residual activity [15] 96% | residual activity [16] 100% | residual activity [17] 100% | residual activity [18] 87% | residual activity [19] 100% | residual activity [20] 100% | residual activity [21] 95% | residual activity [22] 99% | residual activity [23] 100% | residual activity [24] 82% | residual activity [25] 75% | residual activity [26] 100% | residual activity [27] 100% | residual activity [28] 100% | residual activity [29] 91% | residual activity [30] 100% | inhibition [31] 10.6% | inhibition [32] 28.4% | inhibition [33] 6.96%
19.2%: % of Control Agonist Response (Mean n=2) [1]
